One series deals with MDR1 (P-gp). In words: in vitro. The following applies: dog, MDCK-MDR1.
Series [1] is described as follows: Brain concentration and brain/plasma ratio in mouse after 10 mg/kg p.o. The following applies: PO 10 mg/kg. The class given is in vivo.
A further series has as its target p-glycoprotein (P-gp) (Homo sapiens, UniProt P08183). The following applies: background statement; cited from earlier work.
Where [2] appears, read: brain, po, 10 mg/kg, individual animal R1, read-out: Brain Concentration, R1 + 3n.
The mark [3] stands for this setting: brain, po, 10 mg/kg, individual animal R2, read-out: Brain Concentration, R2 + 3n.
Where [4] appears, read: brain, po, 10 mg/kg, individual animal R3, read-out: Brain Concentration, R3 + 3n.
The mark [5] stands for this setting: brain, po, 10 mg/kg, mean, read-out: Brain Concentration, Mean PO.
The mark [6] stands for this setting: plasma, po, 10 mg/kg, individual animal R1, read-out: Plasma Concentration, R1 + 3n.
The mark [7] stands for this setting: plasma, po, 10 mg/kg, individual animal R2, read-out: Plasma Concentration, R2 + 3n.
The mark [8] stands for this setting: plasma, po, 10 mg/kg, individual animal R3, read-out: Plasma Concentration, R3 + 3n.
Where [9] appears, read: plasma, po, 10 mg/kg, mean, read-out: Plasma Concentration, Mean PO.

Read-outs that look alike come from different tables or passages of the source.

Sequence of p-glycoprotein (P-gp) (P08183 whole entry): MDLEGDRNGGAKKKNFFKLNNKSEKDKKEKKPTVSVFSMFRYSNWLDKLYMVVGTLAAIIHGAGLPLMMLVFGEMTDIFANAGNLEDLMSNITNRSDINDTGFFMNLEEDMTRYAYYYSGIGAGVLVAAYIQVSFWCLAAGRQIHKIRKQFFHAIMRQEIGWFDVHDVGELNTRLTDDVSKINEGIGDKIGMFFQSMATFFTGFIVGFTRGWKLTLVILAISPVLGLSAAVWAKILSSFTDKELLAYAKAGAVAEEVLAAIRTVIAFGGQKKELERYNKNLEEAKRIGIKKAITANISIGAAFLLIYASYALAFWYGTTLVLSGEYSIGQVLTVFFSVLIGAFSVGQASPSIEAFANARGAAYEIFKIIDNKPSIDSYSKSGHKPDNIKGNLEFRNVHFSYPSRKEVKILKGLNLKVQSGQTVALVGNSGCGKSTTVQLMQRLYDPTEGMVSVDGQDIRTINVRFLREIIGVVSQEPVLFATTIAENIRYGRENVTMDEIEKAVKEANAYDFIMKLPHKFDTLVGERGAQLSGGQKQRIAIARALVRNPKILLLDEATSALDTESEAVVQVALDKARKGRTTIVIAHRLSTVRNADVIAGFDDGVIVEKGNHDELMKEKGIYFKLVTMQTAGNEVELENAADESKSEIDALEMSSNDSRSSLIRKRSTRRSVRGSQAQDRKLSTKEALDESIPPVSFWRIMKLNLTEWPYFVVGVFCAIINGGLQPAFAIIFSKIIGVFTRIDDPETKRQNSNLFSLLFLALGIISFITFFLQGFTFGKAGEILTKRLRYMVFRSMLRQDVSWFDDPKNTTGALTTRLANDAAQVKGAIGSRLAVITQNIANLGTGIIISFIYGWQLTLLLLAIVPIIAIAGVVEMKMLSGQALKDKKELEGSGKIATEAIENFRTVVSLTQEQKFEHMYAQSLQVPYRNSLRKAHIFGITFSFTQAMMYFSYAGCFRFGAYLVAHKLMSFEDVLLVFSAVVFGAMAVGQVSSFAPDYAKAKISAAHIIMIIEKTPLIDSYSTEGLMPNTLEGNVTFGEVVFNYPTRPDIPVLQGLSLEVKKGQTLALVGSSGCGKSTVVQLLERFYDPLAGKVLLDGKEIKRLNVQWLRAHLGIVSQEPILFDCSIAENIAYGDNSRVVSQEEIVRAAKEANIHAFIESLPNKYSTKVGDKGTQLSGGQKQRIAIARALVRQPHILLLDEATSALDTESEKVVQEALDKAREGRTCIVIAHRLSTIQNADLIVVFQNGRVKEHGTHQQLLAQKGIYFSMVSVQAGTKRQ
Protocol for MDR1 (P-gp): MDR1-MDCK cell monolayers were grown to confluence on collagen-coated, microporous membranes in 12-well assay plates. […] The permeability assay buffer was Hanks' balanced salt solution (HBSS) containing 10 mM HEPES and 15 mM glucose at a pH of 7.4. The buffer in the receiver chamber also contained 1% bovine serum albumin. The dosing solution concentration was 5 μM of test article in the assay buffer+/−1 μM valspodar. Cells were first pre-incubated for 30 minutes with HBSS containing +/−1 μM valspodar. Cell monolayers were dosed on the apical side (A-to-B) or basolateral side (B-to-A) and incubated at 37° C. with 5% CO2 in a humidified incubator. Samples were taken from the donor and receiver chambers at 120 minutes. Each determination was performed in duplicate. The flux of lucifer yellow was also measured post-experimentally for each monolayer to ensure no damage was inflicted to the cell monolayers during the flux period. All samples were assayed by LC-MS/MS using electrospray ionization.

In the series on MDR1 (P-gp), `CC(C)NCC(O)COc1cccc2ccccc12` (stereo not drawn) [Propranolol] came in with a Papp of 12.8 ×10⁻⁶ cm/s.

For `C[C@H]1O[C@@H](O[C@H]2[C@@H](O)C[C@H](O[C@H]3[C@@H](O)C[C@H](O[C@H]4CC[C@@]5(C)[C@H](CC[C@@H]6[C@@H]5C[C@@H](O)[C@]5(C)[C@@H](C7=CC(=O)OC7)CC[C@]65O)C4)O[C@@H]3C)O[C@@H]2C)C[C@H](O)[C@@H]1O` [Digoxin], in the series with MDR1 (P-gp), the Papp A→B turned out to be 0.05 ×10⁻⁶ cm/s, the Papp B→A came out at 13.9 ×10⁻⁶ cm/s and the efflux ratio was 254.

As for `CCN1CCN(Cc2ccc(Nc3ncc(F)c(-c4cc(F)c5nc(C)n(C(C)C)c5c4)n3)nc2)CC1` [abemaciclib, reference compound], the “AUC0-last Ratio, brain/plasma (B/P) ratio” value in series [1] (brain AUC0-last / plasma AUC0-last, 10 mg/kg) is 0.432. Further, in series [1] (brain, from mean concentrations), the “Brain AUC0-last” value was determined as 4085 ng·h/g. For the same compound, the AUC(0-t) in series [1] (plasma, from mean concentrations, read-out: Plasma AUC0-last) turned out to be 9450 ng·h/mL. The concentration at 2 h in series [1] (setting [2]) stood at 216 ng/g; in series [1] (setting [3]) it was 326 ng/g; in series [1] (setting [4]) it was 302 ng/g; in series [1] (setting [5]) it was 282 ng/g; in series [1] (setting [6]), 633 ng/mL; in series [1] (setting [7]), 1060 ng/mL. Moreover, the concentration at 2 h is 821 ng/mL in series [1] (setting [8]) and 836 ng/mL in series [1] (setting [9]). The concentration at 4 h in series [1] (setting [2]) was 452 ng/g; in series [1] (setting [3]) it was 370 ng/g; in series [1] (setting [4]), 469 ng/g; in series [1] (setting [5]), 430 ng/g; in series [1] (setting [6]), 700 ng/mL; in series [1] (setting [7]) it was 744 ng/mL. Moreover, the concentration at 4 h in series [1] (setting [8]) was 963 ng/mL; in series [1] (setting [9]), 802 ng/mL. Moreover, the concentration at 8 h in series [1] (setting [2]) was 421 ng/g; in series [1] (setting [3]), 277 ng/g; in series [1] (setting [4]) it was 341 ng/g; in series [1] (setting [5]) it was 347 ng/g; in series [1] (setting [6]), 1020 ng/mL; in series [1] (setting [7]), 707 ng/mL. The concentration at 8 h in series [1] (setting [8]) came to 780 ng/mL; in series [1] (setting [9]), 837 ng/mL. Besides, the concentration at 24 h in series [1] (setting [2]) stood at 6.51 ng/g; in series [1] (setting [3]), 14.8 ng/g; in series [1] (setting [4]), 10.6 ng/g; in series [1] (setting [5]), 10.6 ng/g; in series [1] (setting [6]), 11.5 ng/mL; in series [1] (setting [7]) it was 46.7 ng/mL. Further, the values for the concentration at 24 h in series [1] (setting [8]) and in series [1] (setting [9]) were 16.6 ng/mL and 24.9 ng/mL, respectively. The Kp in series [1] (brain, po, 10 mg/kg, brain AUC0-last / plasma AUC0-last, read-out: AUC0-last Ratio, brain/plasma (B/P) ratio) is 0.43. Moreover, the P-gp substrate entry at p-glycoprotein (P-gp) was “p-glycoprotein (P-gp) substrates”.

On to `CC(=O)c1c(C)c2cnc(Nc3ccc(N4CCNCC4)cn3)nc2n(C2CCCC2)c1=O` [palbociclib], for which, on p-glycoprotein (P-gp), the P-gp substrate entry is “p-glycoprotein (P-gp) substrates”.

The term Papp denotes the rate of passage across a membrane or cell layer, normalised by area and donor concentration. Higher therefore signals fast passage. In general, Papp A→B refers to how fast a substance crosses the layer from the apical side. The low end stands for slow passage, the high end for fast passage. The term Papp B→A denotes the apparent permeability from the basolateral to the apical side of a cell layer. What is called efflux ratio is the permeability from basolateral to apical divided by that in the opposite direction, in the common usage.

Values taken from patent US20220079944A1, “2H-INDAZOLE DERIVATIVES AS THERAPEUTIC AGENTS FOR BRAIN CANCERS AND BRAIN METASTASES” (BETA PHARMA, INC., priority 2019, published 2022).
